Laboratory results published in US20170304450A1, “PARENTERAL COMPOSITIONS AND USES THEREOF” (CEVA SANTE ANIMALE, priority 2014, published 2017).
Like-named read-outs stand apart in the source and are kept apart here.

Key:
[1] = system: Mannheimia haemolytica; experiment: Useful life of the antibiotic (time plasma concentration is above MIC90); type: in vivo; details: time plasma florfenicol is above MIC90 1 μg/mL for Mannheimia haemolytica; bovines, subcutaneous
Protocol: (§1) Blood samples are taken regularly during the 7 days following this injection. This is followed by a wash-out period of 20 days. The animals then receive a subcutaneous injection of 0.5 mg/kg meloxicam (Metacam®, Boehringer Ingelheim, 5 mg of meloxicam/mL). Blood samples are taken regularly during the 7 days following this injection. This is followed by a new wash-out period of 20 days. […] Blood samples are taken regularly during the 7 days following this injection. […] The useful life of an antibiotic is the time (in hours) during which the plasma concentration of a given antibiotic is above its MIC90 for the 3 representative microbes Mannheimia haemolytica, Histophilus somni, Pasteurella multocida.

[2] = system: Histophilus somni; experiment: as above; type: in vivo; details: time plasma florfenicol is above MIC90 0.2 μg/mL for Histophilus somni; bovines, subcutaneous
Protocol: as §1

[3] = system: Pasteurella multocida; experiment: as above; type: in vivo; details: time plasma florfenicol is above MIC90 0.5 μg/mL for Pasteurella multocida; bovines, subcutaneous
Protocol: as §1

[4] = Tests of equivalence of bioavailability: plasma pharmacokinetic parameters after subcutaneous injection; type: in vivo, bovines; details: both sexes, bovine (cattle), sc
Protocol: 24 young male and female bovines aged 11 months and with an average weight of 220 kg are treated individually with 1 subcutaneous injection of 40 mg/kg of florfenicol (Nuflor 450®—Merck, 450 mg of florfenicol/mL). Blood samples are taken regularly during the 7 days following this injection. This is followed by a wash-out period of 20 days. The animals then receive a subcutaneous injection of 0.5 mg/kg meloxicam (Metacam®, Boehringer Ingelheim, 5 mg of meloxicam/mL). Blood samples are taken regularly during the 7 days following this injection. This is followed by a new wash-out period of 20 days. […] Blood samples are taken regularly during the 7 days following this injection. The blood samples obtained during this treatment campaign make it possible to evaluate the pharmacokinetic parameters (Cmax and AUC0-t) and a pharmacological parameter (useful life of the antibiotic) by conventional methods known by a person skilled in the art.

[5] = system: Histophilus somni; details: Histophilus somni reference strain; cited from earlier work
[6] = system: Mannheimia haemolytica; details: Mannheimia haemolytica reference strain; cited from earlier work
[7] = system: Pasteurella multocida; details: Pasteurella multocida reference strain; cited from earlier work

| Structure (SMILES) | Calculated antibiotic life [1] [h] | Calculated antibiotic life [2] [h] | Calculated antibiotic life [3] [h] | AUC(0-t) ([4]; in vivo, 40 mg/kg) [µg·h/mL] | Cmax ([4]; in vivo, 40 mg/kg) [ng/mL] | reference MIC90 [5] [µg/mL] | reference MIC90 [6] [µg/mL] | reference MIC90 [7] [µg/mL] | AUC(0-t) ([4]; plasma, 0.5 mg/kg, read-out: AUC0-t of meloxicam in plasma) [µg·h/mL] | Cmax ([4]; plasma, 0.5 mg/kg, read-out: Cmax of meloxicam in plasma) [ng/mL] |
| --- | --- | --- | --- | --- | --- | --- | --- | --- | --- | --- |
| CS(=O)(=O)c1ccc([C@@H](O)[C@@H](CF)NC(=O)C(Cl)Cl)cc1 [Florfenicol, florfenicol] | 66.44 ± 20.65 | 167.78 ± 0.13 | 132.03 ± 27.22 | 196 ± 45 | 3500 ± 1040 | 0.2 | 1 | 0.5 | – | – |
| Cc1cnc(NC(=O)C2=C(O)c3ccccc3S(=O)(=O)N2C)s1 [Meloxicam, meloxicam] | – | – | – | – | – | – | – | – | 40.6 ± 7.12 | 2240 ± 357 |
